Results from patent EP3057951B1, “METHYLENE LINKED QUINOLINYL MODULATORS OF ROR-GAMMA-T” (Janssen Pharmaceutica NV, priority 2013, dated 2015).
Several values for one entry are separate records, joined by “and”; a condition that tells them apart may be missing. Equal values may be shown once. Where a name gives a salt, the structure may show the parent alone. Read-outs that look alike come from different tables or passages of the source.

Legend:
[1] = target: T1, wild type human RORγt ligand binding domain (RORyt LBD) (Homo sapiens, UniProt P51449); test: RORγt ThermoFluor assay (thermal shift, binding affinity KD)
T1 construct: His-tag (N); TurboTEV protease cleavage site (ENLYFQG) (N); made in house; host or cells: E. coli (pHIS1, modified pET vector)
T1 sequence (P51449 258-518): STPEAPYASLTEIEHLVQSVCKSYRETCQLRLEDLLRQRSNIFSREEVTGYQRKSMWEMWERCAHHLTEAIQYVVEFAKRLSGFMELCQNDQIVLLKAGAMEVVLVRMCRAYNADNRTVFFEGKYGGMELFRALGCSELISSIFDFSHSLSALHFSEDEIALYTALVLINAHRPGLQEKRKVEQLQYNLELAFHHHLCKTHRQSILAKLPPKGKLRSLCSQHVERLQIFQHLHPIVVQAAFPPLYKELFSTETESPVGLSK

[2] = target: T2, wild type human RORγt LBD (Homo sapiens, UniProt P51449); test: RORγt (LBD) Reporter Assay (GAL4-luciferase, HEK293T cells); type: cell-based; settings: for inhibition at 6 µM: HEK-293T, read-out: RORγt (LBD) Reporter Assay, % inhibition @ 6 µM, 6 µM compound concentration; for RORγt (LBD) Reporter Assay, % inhibition @ 6 µM: 6 µM compound concentration
T2 construct: expressed in transfected cells; host or cells: HEK293T
T2 sequence (P51449 258-518): T1 sequence (P51449 258-518)

[3] = HEK293T cells, value after the comma with ∼, > or < could not be included in the average

Row | SMILES | Kd [1] [nM] | IC50 ([2]; HEK293T cells) [nM] | inhibition at 6 µM ([2]; HEK293T cells) [%] | IC50 [2, 3] | inhibition at 6 µM [2] [%] | RORγt (LBD) Reporter Assay, % inhibition @ 6 µM ([2]; HEK293T cells) [%] | RORγt (LBD) Reporter Assay, % inhibition @ 6 µM [2] [%]
1 | Cn1cncc1C(O)(c1ccc(Cl)cc1)c1ccc2nc(C(F)(F)F)c(Cc3ccccc3)c(C#N)c2c1 (stereo not drawn) [Example 103, 3-Benzyl-6-((4-chlorophenyl)(hydroxy)(1-methyl-1H-imidazol-5-yl)methyl)-2-(trifluoromethyl)quinoline-4-carbonitrile•TFA] | 9.4 |  |  | 33 nM | 81 |  | 
2 | CON(C)c1nc2ccc(C(O)(c3ccc(C(F)(F)F)nc3)c3cncn3C)cc2c(N(C)OC)c1Cc1ccc(-n2cccn2)cc1 (stereo not drawn) [Example 129, {2,4-Bis[methoxy(methyl)amino]-3-[4-(1H-pyrazol-1-yl)benzyl]quinolin-6-yl}(1-methyl-1H-imidazol-5-yl)[6-(trifluoromethyl)pyridin-3-yl]methanol] | 1700 | 1500 | 110 |  |  |  | 
3 | COc1nc2ccc(C(O)(c3ccccc3)C3CCN(C(C)=O)CC3)cc2c(Cl)c1Cc1ccc(-n2ccnc2)cc1 (stereo not drawn) [Example 16a, 1-(4-((3-(4-(1H-Imidazol-1-yl)benzyl)4-chloro-2-metboxyquinolin-6-yl)(hydroxy)(phenyl)methyl)piperidin-1-yl)ethanone] | 8.4 |  |  | 9.8 nM | 101 |  | 
4 | COc1ccc(C(O)(c2cccnc2)c2ccc3nc(OC)c(Cc4ccc(-n5cccn5)cc4)c(Cl)c3c2)cc1OC (single isomer, unassigned) [Example 159c, (3-(4-(1H-Pyrazol-1-yl)benzyl)-4-chloro-2-methoxyquinolin-6-yl)(3,4-dimethoxyphenyl)(pyridin-3-yl)methanol] | 14 | 51 |  |  |  | 105 | 
5 | Cn1cncc1C(O)(c1ccc(C(F)(F)F)nc1)c1ccc2nc(-c3nccn3C)c(Cc3ccccc3)c(C#N)c2c1 (stereo not drawn) [Example 153, 3-Benzyl-6-(hydroxy(1-methyl-1H-imidazol-5-yl)(6-(trifluoromethyl)pyridin-3-yl)methyl)-2-(1-methyl-1H-imidazol-2-yl)quinoline-4-carbonitrile^.TFA] | 15000 | > 6000 | 44 |  |  |  | 
6 | Cc1cc(C(O)(c2ccc(C(F)(F)F)nc2)c2cncn2C)cc2c(Cl)c(Cc3ccc(-n4cccn4)cc3)c(N3CCC3)nc12 (single isomer, unassigned) [Example 137b, {2-Azetidin-1-yl-4-chloro-8-methyl-3-[4-(1H-pyrazol-1-yl)benzyl]quinolin-6-yl}(1-methyl-1H-imidazol-5-yl)[6-(trifluoromethyl)pyridin-3-yl]methanol] | 41 | 160 | 93 |  |  |  | 
7 | Cc1cc(C(O)(c2ccc(C(F)(F)F)nc2)c2cncn2C)cc2c(Cl)c(Cc3ccc(-n4cccn4)cc3)c(N3CCC3)nc12 (stereo not drawn) [Example 137a, {2-Azetidin-1-yl-4-chloro-8-methyl-3-[4-(1H-pyrazol-1-yl)benzyl]quinolin-6-yl}(1-methyl-1H-imidazol-5-yl)[6-(trifluoromethyl)pyridin-3-yl]methanol] | 9 | 170 | 97 |  |  |  | 
8 | Cc1cc(C(O)(c2ccc(Cl)cc2)c2cncn2C)cc2c(Cl)c(Cc3ccc(-n4cccn4)cc3)c(N3CCC3)nc12 (single isomer, unassigned) [Example 136c, {2-Azetidin-1-yl-4-chloro-8-methyl-3-[4-(1H-pyrazol-1-yl)benzyl]quinolin-6-yl}(4-chlorophenyl)(1-methyl-1H-imidazol-5-yl)methanol] | 19 | 140 |  |  |  | 97 | 
9 | Cn1cncc1C(O)(c1ccc(C(F)(F)F)nc1)c1ccc2nc(N3CC(F)(F)C3)c(Cc3ccc(-n4cccn4)cc3)c(Cl)c2c1 (stereo not drawn) [Example 135a, {4-Chloro-2-(3,3-difluoroazetidin-1-yl)-3-[4-(1H-pyrazol-1-yl)benzyl]quinolin-6-yl}(1-methyl-1H-imidazol-5-yl)[6-(trifluoromethyl)pyridin-3-yl] methanol.TFA] | 36 | 270 | 97 |  |  |  | 
10 | COc1nc2ccc(C(O)(c3ccccc3)C3CCN(C(C)=O)CC3)cc2c(Cl)c1Cc1ccc(-n2ccnc2)cc1 (stereo not drawn) [Example 16b] | 33 |  |  | 91 nM |  |  | 96
11 | COc1nc2ccc(C(O)(c3ccc(C#N)cc3)c3cncn3C)cc2c(Cl)c1Cc1ccc(-n2cncn2)cc1 (single isomer, unassigned) [Example 14c, 4-((3-(4-(1H-1,2,4-Triazol-1-yl)benzyl)-4-chloro-2-methoxyquinolin-6-yl)(hydroxy)(1-methyl-1H-imidazol-5-yl)methyl)benzonitrile] | 5.5 |  |  | 24 nM |  |  | 106
12 | Cc1ccc(C(O)(c2ccc3nc(N4CCC4)c(Cc4ccc(C(F)(F)F)cc4)c(Cl)c3c2)c2cnnn2C)c(C)n1 (single isomer, unassigned) [Example 140b, {2-Azetidin-1-yl-4-chloro-3-[4-(trifluoromethyl)benzyl]quinolin-6-yl}(2,6-dimethylpyridin-3-yl)(1-methyl-1H-1,2,3-triazol-5-yl)methanol] | 130 | ~100 | 101 |  |  |  | 
13 | Cn1cncc1C(O)(c1ccc2nc(C(F)(F)F)c(Cc3ccccc3)c(O)c2c1)c1ccccn1 (stereo not drawn) [Example 152, 3-Benzyl-6-(hydroxy(1-methyl-1H-imidazol-5-yl)(pyridin-2-yl)methyl)-2-(trifluoromethyl)quinolin-4-ol^.TFA] | 38000 | 4800 | 70 |  |  |  | 
14 | COc1nc2ccc(C(O)(c3ccc(Cl)cc3)c3cccnc3)cc2c(Cl)c1Cc1ccc(-n2cccn2)cc1 (stereo not drawn) [Example 62, (3-(4-(1H-pyrazol-1-yl)benzyl)4-chloro-2-methoxyquinolin-6-yl)(4-chlorophenyl)(pyridin-3-yl)methanol] | 41 |  |  | 120 nM | 107 |  | 

Molecules with a lower Kd [1], results first:

Row | Kd [1] [nM] | IC50 ([2]; HEK293T cells) [nM] | inhibition at 6 µM ([2]; HEK293T cells) [%] | IC50 [2, 3] | inhibition at 6 µM [2] [%] | RORγt (LBD) Reporter Assay, % inhibition @ 6 µM ([2]; HEK293T cells) [%] | RORγt (LBD) Reporter Assay, % inhibition @ 6 µM [2] [%] | SMILES
15 | 5.2 | 71 | 101 |  |  |  |  | COc1nc2ccc(C(O)(c3cnnn3C)C3CN(C(=O)OC(C)(C)C)C3)cc2c(Cl)c1Cc1ccc(C(F)(F)F)cc1 (stereo not drawn) [Example 123, tert-Butyl-3-((4-chloro-2-methoxy-3-(4-(trifluoromethyl)benzyl)quinolin-6-yl)(hydroxy)(1-methyl-1H-1,2,3-triazol-5-yl)methyl)azetidine-1-carboxylate]
16 | 5.2 |  |  | 14 nM |  |  | 98 | COc1nc2ccc(C(O)(c3ccc(C#N)cc3)c3cncn3C)cc2c(Cl)c1Cc1ccc(C(F)(F)F)nc1 (single isomer, unassigned) [Example 38c, 4-((4-Chloro-2-methoxy-3-((6-(trifluoromethyl)pyridin-3-yl)methyl)quinolin-6-yl)(hydroxy)(1-methyl-1H-imidazol-5-yl)methyl)benzonitrile]
17 | 3 |  |  | 15 nM |  |  | 97 | COc1nc2ccc(C(O)(c3ccc(C)nc3C)C3CN(C(C)=O)C3)cc2c(Cl)c1Cc1ccc(C(F)(F)F)cc1 (single isomer, unassigned) [Example 87c, 1-(3-((4-Chloro-2-methoxy-3-(4-(trifluoromethyl)benzyl)quinolin-6-yl)(2,6-dimethylpyridin-3-yl)(hydroxy)methyl)azetidin-1-yl)ethanone]
18 | 2.8 |  |  | 24 nM | 99 |  |  | COc1nc2ccc(C(O)(c3ccc(C)nc3C)c3cnnn3C)cc2c(C#N)c1Cc1ccc(C(F)(F)F)nc1 (stereo not drawn) [Example 41a, 6-((2,6-Dimethylpyridin-3-yl)(hydroxy)(1-methyl-1H-1,2,3-triazol-5-yl)methyl)-2-methoxy-3-((6-(trifluoromethyl)pyridin-3-yl)methyl)quinoline-4-carbonitrile]
19 | 2.2 |  |  | 2.6 nM |  |  | 90 | COc1nc2ccc(C(O)(c3cnnn3C)c3cnc(C)n3C)cc2c(C#N)c1Cc1ccc(F)cc1 (single isomer, unassigned) [Example 66c, 6-((1,2-Dimethyl-1H-imidazol-5-yl)(hydroxy)(1-methyl-1H-1,2,3-triazol-5-yl)methyl)-3-(4-fluorobenzyl)-2-methoxyquinoline4-carbonitrile]
20 | 1.2 |  |  | < 2 nM | 97 |  |  | COc1nc2ccc(C(O)(c3cncn3C)c3cnnn3C)cc2c(Cl)c1Cc1ccc(C(F)(F)F)cc1 (single isomer, unassigned) [Example 89b, (4-Chloro-2-methoxy-3-(4-(trifluoromethyl)benzyl)quinolin-6-yl)(1-methyl-1H-1,2,3-triazol-5-yl)(1-methyl-1H-imidazol-5-yl)methanol]
21 | 0.59 |  |  | 8.2 nM | 90 |  |  | COc1nc2ccc(C(O)(c3cnnn3C)c3cnc(C)n3C)cc2c(C#N)c1Cc1ccc(F)cc1 (racemic) [Example 66a, 6-((1,2-Dimethyl-1H-imidazol-5-yl)(hydroxy)(1-methyl-1H-1,2,3-triazol-5-yl)methyl)-3-(4-fluorobenzyl)-2-methoxyquinoline4-carbonitrile]
22 | 0.3 |  |  | 4.2 nM and ~20 nM | 98 |  |  | COc1nc2ccc(C(O)(c3ccc(C)nc3C)c3cncn3C)cc2c(Cl)c1Cc1ccc(C(F)(F)F)cc1 (racemic) [Example 88a, (4-Chloro-2-methoxy-3-(4-(trifluoromethyl)benzyl)quinolin-6-yl)(2,6-dimethylpyridin-3-yl)(1-methyl-1H-imidazol-5-yl)methanol]
